Patent US11014911B2, “CDK2 inhibitors” (Pfizer Inc., priority 2019, dated 2021)

Biological target: CDK2/Cyclin E1 full length (Homo sapiens (Human), UniProt P24941)
Assay: CDK2/Cyclin E1 full length mobility shift assay
Format: biochemical
Protocol: Cdk2/Cyclin E1 Full Length Mobility Shift Assay
Wild-type CDK2/wild-type full length Cyclin E1 enzyme complex was produced in-house (baculoviral expression, LJIC-2080/LJIC-2103) and phosphorylated by CDK7/Cyclin H1/Matl enzyme complex with CDK2:CDK7 ratio of 50:1 (concentration mg/mL) in the presence of 10 mM MgCl2 and 5 mM ATP at room temperature for one hour. […] The assay was initiated with the addition of ATP, following a fifteen minutes pre-incubation of enzyme and inhibitor at room temperature in the reaction mixture. The reaction was stopped after 45 minutes at room temperature by the addition of 50 μL of 80 mM EDTA.

SMILES	Ki [nM]
CCC(CO)CNC(=O)O[C@@H]1CC[C@H](c2cc(NC(=O)Cc3cnc(C)o3)n[nH]2)C1 (single isomer, unassigned) [Example 527]	2.63
Cc1ccnc(CC(=O)Nc2cc([C@H]3CC[C@@H](OC(=O)NC4(C)CC4)C3)[nH]n2)c1Cl [Example 441, (1R,3S)-3-(3-{[(3-chloro-4-methylpyridin-2-yl)acetyl]amino}-1H-pyrazol-5-yl)cyclopentyl (1-methylcyclopropyl)carbamate]	1.42
Cc1ncc(CC(=O)Nc2cc([C@H]3CC[C@@H](OC(=O)NC(C)C)C3)[nH]n2)s1 [Example 2, (1R,3S)-3-(3-{[(2-methyl-1,3-thiazol-5-yl)acetyl]amino}-1H-pyrazol-5-yl)cyclopentyl propan-2-ylcarbamate]	0.31
O=C(Cc1cc(F)cc(F)c1)Nc1cc([C@@H]2CC[C@H](OC(=O)NC[C@@H]3CCCO3)C2)[nH]n1 [Example 499, (1S,3R)-3-(3-{[(3,5-difluorophenyl)acetyl]amino}-1H-pyrazol-5-yl)cyclopentyl [(2S)-tetrahydrofuran-2-ylmethyl]carbamate]	2.55
C[C@H](F)[C@H](C)NC(=O)O[C@@H]1CC[C@H](c2cc(NC(=O)Cc3cnn(C)c3)n[nH]2)C1 (single isomer, unassigned) [Example 381, (1R,3S)-3-(3-{[(1-methyl-1H-pyrazol-4-yl)acetyl]amino}-1H-pyrazol-5-yl)cyclopentyl [(2S*,3S*)-3-fluorobutan-2-yl]carbamate]	3.11
Cc1ncc(CC(=O)Nc2cc([C@H]3CC[C@@H](OC(=O)NCC(F)(F)F)C3)[nH]n2)s1 [Example 254, (1R,3S)-3-(3-{[(2-methyl-1,3-thiazol-5-yl)acetyl]amino}-1H-pyrazol-5-yl)cyclopentyl (2,2,2-trifluoroethyl)carbamate]	2.17
Cc1cnc(CC(=O)Nc2cc([C@H]3CC[C@@H](OC(=O)NC(C)CC(F)(F)F)C3)[nH]n2)cn1 (single isomer, unassigned) [Example 73]	2.31
Cc1cc(CC(=O)Nc2cc([C@@H]3CC[C@H](OC(=O)NC(C)C)C3)[nH]n2)no1 [Example 268, (1S,3R)-3-(3-{[(5-methyl-1,2-oxazol-3-yl)acetyl]amino}-1H-pyrazol-5-yl)cyclopentyl propan-2-ylcarbamate]	0.97
CN1CC(CNC(=O)O[C@H]2CC[C@@H](c3cc(NC(=O)Cc4cc(F)cc(F)c4)n[nH]3)C2)OCC1=O (single isomer, unassigned) [Example 583]	2.71
CC(CC(F)(F)F)NC(=O)O[C@@H]1CC[C@H](c2cc(NC(=O)Cc3ccno3)n[nH]2)C1 (single isomer, unassigned) [Example 85]	1.06
CCC1(NC(=O)O[C@@H]2CC[C@H](c3cc(NC(=O)Cc4cnc(C)cn4)n[nH]3)C2)CC1 [Example 449, (1R,3S)-3-(3-{[(5-methylpyrazin-2-yl)acetyl]amino}-1H-pyrazol-5-yl)cyclopentyl (1-ethylcyclopropyl)carbamate]	0.39
COc1cnc(CC(=O)Nc2cc([C@H]3CC[C@@H](OC(=O)N4CCC4(C)C)C3)[nH]n2)cn1 [Example 602, (1R,3S)-3-(3-{[(5-methoxypyrazin-2-yl)acetyl]amino}-1H-pyrazol-5-yl)cyclopentyl 2,2-dimethylazetidine-1-carboxylate]	0.3
Cc1cnc(CC(=O)Nc2cc([C@H]3CC[C@@H](OC(=O)NC4(C)CCOC4)C3)[nH]n2)o1 (single isomer, unassigned) [Example 478]	1.13
Cc1coc(CC(=O)Nc2cc([C@H]3CC[C@@H](OC(=O)NC4(C)CC4)C3)[nH]n2)n1 [Example 422, (1R,3S)-3-(3-{[(4-methyl-1,3-oxazol-2-yl)acetyl]amino}-1H-pyrazol-5-yl)cyclopentyl (1-methylcyclopropyl)carbamate]	0.55
COc1cnc(CC(=O)Nc2cc([C@H]3CC[C@@H](OC(=O)NC(C)CC(F)(F)F)C3)[nH]n2)cn1 (single isomer, unassigned) [Example 67]	1.5
Cc1nc(CC(=O)Nc2cc([C@H]3CC[C@@H](OC(=O)NC(C)C)C3)[nH]n2)ccc1Cl [Example 282, (1R,3S)-3-(3-{[(5-chloro-6-methylpyridin-2-yl)acetyl]amino}-1H-pyrazol-5-yl)cyclopentyl propan-2-ylcarbamate]	2.34
Cc1coc(CC(=O)Nc2cc([C@H]3CC[C@@H](OC(=O)N[C@H](C)CC(F)(F)F)C3)[nH]n2)n1 [Example 395, (1R,3S)-3-(3-{[(4-methyl-1,3-oxazol-2-yl)acetyl]amino}-1H-pyrazol-5-yl)cyclopentyl [(2R)-4,4,4-trifluorobutan-2-yl]carbamate]	1.43
CCCNC(=O)O[C@@H]1CC[C@H](c2cc(NC(=O)Cc3ccccc3S(=O)(=O)C3CC3)n[nH]2)C1 [Example 210, (1R,3S)-3-[3-({[2-(cyclopropylsulfonyl)-phenyl]acetyl}amino)-1H-pyrazol-5-yl]cyclopentyl propylcarbamate]	3.8

SMILES	Ki [nM]
CC1(NC(=O)O[C@@H]2CC[C@H](c3cc(NC(=O)Cc4cc(C(F)F)ccn4)n[nH]3)C2)CC1 [Example 443, (1R,3S)-3-[3-({[4-(difluoromethyl)pyridin-2-yl]acetyl}amino)-1H-pyrazol-5-yl]cyclopentyl (1-methylcyclopropyl)carbamate]	0.36
C[C@H]1CCC[C@H]1NC(=O)O[C@@H]1CC[C@H](c2cc(NC(=O)Cc3ccno3)n[nH]2)C1 [Example 461, (1R,3S)-3-{3-[(1,2-oxazol-5-ylacetyl)amino]-1H-pyrazol-5-yl}cyclopentyl [(1R,2S)-2-methylcyclopentyl]carbamate]	1.75
Cc1cc(CC(=O)Nc2cc([C@H]3CC[C@@H](OC(=O)N4CCC4C)C3)[nH]n2)on1 (single isomer, unassigned) [Example 590]	2.86
CC[C@H](C)NC(=O)O[C@@H]1CC[C@H](c2cc(NC(=O)Cc3cc(OC)ncc3OC)n[nH]2)C1 [Example 358, (1R,3S)-3-(3-{[(2,5-dimethoxypyridin-4-yl)acetyl]amino}-1H-pyrazol-5-yl)cyclopentyl (2S)-butan-2-ylcarbamate]	1.65
COC[C@H](C)NC(=O)O[C@@H]1CC[C@H](c2cc(NC(=O)Cc3cnc(OC)cn3)n[nH]2)C1 [Example 520, (1R,3S)-3-(3-{[(5-methoxypyrazin-2-yl)acetyl]amino}-1H-pyrazol-5-yl)cyclopentyl [(2S)-1-methoxypropan-2-yl]carbamate]	2.88
CC[C@H](C)NC(=O)O[C@@H]1CC[C@H](c2cc(NC(=O)Cc3cn4ccc(C)nc4n3)n[nH]2)C1 [Example 357, (1R,3S)-3-(3-{[(7-methylimidazo[1,2-a]pyrimidin-2-yl)acetyl]amino}-1H-pyrazol-5-yl)cyclopentyl (2S)-butan-2-ylcarbamate]	4.08
Cc1nc(CC(=O)Nc2cc([C@H]3CC[C@@H](OC(=O)NC4(C)CC4)C3)[nH]n2)ccc1Cl [Example 442, (1R,3S)-3-(3-{[(5-chloro-6-methylpyridin-2-yl)acetyl]amino}-1H-pyrazol-5-yl)cyclopentyl (1-methylcyclopropyl)carbamate]	0.37
COc1cc(CC(=O)Nc2cc([C@H]3CC[C@@H](OC(=O)NC4CCOCC4)C3)[nH]n2)ccn1 [Example 504, (1R,3S)-3-(3-{[(2-methoxypyridin-4-yl)acetyl]amino}-1H-pyrazol-5-yl)cyclopentyl tetrahydro-2H-pyran-4-ylcarbamate]	3.64
Cc1cc(CC(=O)Nc2cc([C@H]3CC[C@@H](OC(=O)NC4(C)CC4)C3)[nH]n2)ncc1Cl [Example 440, (1R,3S)-3-(3-{[(5-chloro-4-methylpyridin-2-yl)acetyl]amino}-1H-pyrazol-5-yl)cyclopentyl (1-methylcyclopropyl)carbamate]	1.47
COc1cnc(CC(=O)Nc2cc([C@H]3CC[C@@H](OC(=O)NC4(C)CCOC4)C3)[nH]n2)cn1 (single isomer, unassigned) [Example 486]	1.46
Cc1cnc(CC(=O)Nc2cc([C@H]3CC[C@@H](OC(=O)N4[C@@H](C)C[C@@H]4C)C3)[nH]n2)cn1 [Example 608, (1R,3S)-3-(3-{[(5-methylpyrazin-2-y)acetyl]amino}-1H-pyrazol-5-yl)cyclopentyl (2S,4S)-2,4-dimethylazetidine-1-carboxylate]	1.11
CCNC(=O)O[C@@H]1CC[C@H](c2cc(NC(=O)Cc3cccc4scnc34)n[nH]2)C1 [Example 234, (1R,3S)-3-{3-[(1,3-benzothiazol-4-ylacetyl)amino]-1H-pyrazol-5-yl}cyclopentyl ethylcarbamate]	4.11
Cc1cnc(CC(=O)Nc2cc([C@H]3CC[C@@H](OC(=O)N[C@@H](C)CF)C3)[nH]n2)o1 [Example 379, (1R,3S)-3-(3-{[(5-methyl-1,3-oxazol-2-yl)acetyl]amino}-1H-pyrazol-5-yl)cyclopentyl [(2S)-1-fluoropropan-2-yl]carbamate]	3.05
COc1cc(CC(=O)Nc2cc([C@H]3CC[C@@H](OC(=O)N4C[C@@H](C#N)[C@@H]4C)C3)[nH]n2)ccn1 (single isomer, unassigned) [Example 156]	2.21
CC(C)(C)NC(=O)O[C@@H]1CC[C@H](c2cc(NC(=O)Cc3cc(C(F)(F)F)ccn3)n[nH]2)C1 [Example 316, (1R,3S)-3-[3-({[4-(trifluoromethyl)pyridin-2-yl]acetyl}amino)-1H-pyrazol-5-yl]cyclopentyl tert-butylcarbamate]	1.3
COc1cnc(CC(=O)Nc2cc([C@H]3CC[C@@H](OC(=O)N4CC[C@@H]4C)C3)[nH]n2)cn1 [Example 592, (1R,3S)-3-(3-{[(5-methoxypyrazin-2-yl)acetyl]amino}-1H-pyrazol-5-yl)cyclopentyl (2S)-2-methylazetidine-1-carboxylate]	2.27
Cc1cnc(CC(=O)Nc2cc([C@H]3CC[C@@H](OC(=O)NC4(C)CC4)C3)[nH]n2)c(Cl)c1 [Example 438, (1R,3S)-3-(3-{[(3-chloro-5-methylpyridin-2-yl)acetyl]amino}-1H-pyrazol-5-yl)cyclopentyl (1-methylcyclopropyl)carbamate]	2.5
COc1nn(C)cc1CC(=O)Nc1cc([C@H]2CC[C@@H](OC(=O)NC(C)(C)C)C2)[nH]n1 [Example 309, (1R,3S)-3-(3-{[(3-methoxy-1-methyl-1H-pyrazol-4-yl)acetyl]amino}-1H-pyrazol-5-yl)cyclopentyl tert-butylcarbamate]	1.55
